Measured values: patent US11254654B2, “Heterochromatin gene repression inhibitors” (The University of North Carolina at Chapel Hill, priority 2017, dated 2022)
Counter-ions that a name gives are not always drawn.

Tested on: HP1 heterochromatin pathway
Experiment: Small molecule high-throughput flow cytometry screen, CiA:Oct4 N118/N163 cells with rapamycin (csHP1α recruitment)
Type: cell-based, mouse
Details: 10 μM compound, + 6 nM rapamycin, 48 hrs
Description: The CiA:Oct4 recruitment system in mouse embryonic stem cells contains Gal4 and Zinc finger DNA binding arrays and a downstream nuclear eGFP gene in place of a single Oct4 allele as previously described (Hathaway et al., 2012). The CiA:Oct4 N118/N163 cell line containing viral integrations of N118 and N163 plasmids (N118-nLV EF-1α-Gal-FKBPx1-HA-PGK-Blast, N163-nLV EF-1α-HP1α (CS)-Frbx2(Frb+FrbWobb)-V5-PGK-Puro) was used for all experiments unless otherwise stated. The CiA:Oct4 N205 line containing the lentiviral construct N205 (N205-nLV EF-1α-ZFHD1-link-FKBP-HA <T2A> HP1αCS-Frbx2-V5-PGK-Blast) was used for shRNA experiments. CiA:Oct4 N118 was infected with the lentiviral construct N192 (N192-nLV Dual Promoter EF-1α-MCS-PGK-Puro HP1γ-(CS)-Frbx2(wobbmo)-V5) to yield the csHP1γ recruitment system CiA:Oct4 N118/N192. For orthogonal recruitment system, stable mESC cell line with blue fluorescent protein (BFP) reporter gene with tetracycline response elements (TRE) was generated by recombinase-mediated cassette exchange, by introducing the reporter cassette DNA in plasmid YR06 into a genetrap located on chromosome 15 at genome coordinates chr15:99941948 (Lienert et al. (2011) Nature Genetics 43(11): 1091-1097; Elling et al. (2017) Nature 550(7674): 114-118). […]
Flow cytometry was performed using an Intellicyt iQue Screener and analyzed with FlowJo software. […]

Compound: COc1cc2nc(N3CCCC3)nc(N[C@H]3CCCNC3)c2cc1OC [compound 1, (S)-6,7-Dimethoxy-N-(Piperidin-3-yl)-2-(Pyrrolidin-1-yl)Quinazolin-4-Amine Trifluoroacetic Acid Salt]
- GFP expression / % GFP (+) population despite csHP1α recruitment: increased expression of GFP
